The values that follow come from patent US8853239B2, “Compounds, pharmaceutical compositions and uses thereof” (Boehringer Ingelheim International GmbH, priority 2011, dated 2014).

The target of this test is T1, human GPR119 (Homo sapiens, UniProt Q8TDV5).
T1 construct: expression vector for human GPR119 cDNA (Acc. No. NP_848566); expressed in transfected cells
T1 sequence (Q8TDV5 1-335): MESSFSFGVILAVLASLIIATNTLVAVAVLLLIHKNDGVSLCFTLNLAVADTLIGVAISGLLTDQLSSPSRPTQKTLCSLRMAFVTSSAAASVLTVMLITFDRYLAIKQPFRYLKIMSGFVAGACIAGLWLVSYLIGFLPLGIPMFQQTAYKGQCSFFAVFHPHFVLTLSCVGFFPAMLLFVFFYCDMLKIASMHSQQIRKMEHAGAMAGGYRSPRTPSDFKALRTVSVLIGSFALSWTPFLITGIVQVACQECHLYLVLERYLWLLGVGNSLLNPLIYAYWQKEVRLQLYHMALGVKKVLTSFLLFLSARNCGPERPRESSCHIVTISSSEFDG
The experiment in a line: AlphaScreen cAMP assay in MIN6 cells stably transfected with human GPR119. It counts as cell-based. The conditions noted are these: Min-6/hGPR119 cells, stimulation of intracellular cAMP, 45 minutes incubation at room temperature. The protocol:
The compounds of formula I according to the invention modulate the activity of the G-protein-coupled receptor GPR119. The effect of the compounds on the activation of GPR119 and on the stimulation of intracellular cAMP concentration is determined using the AlphaScreen cAMP Assay Kit (Cat. No. #6760625R) made by PerkinElmer.
MIN6 cells [Miyazaki J et al. Endocrinology. 1990 July; 127(1):126-32] are stably transfected with an expression vector for human GPR119 cDNA (Acc. No. NP_848566). Min-6/hGPR119 cells are cultured in DMEM, 10% FBS, 50 μM β-mercaptoethanol, 0.3 mg/mL Geniticin, 2 mM GlutaMAX at 37° C. 5% CO2. For the assay, the cells are seeded in Optiplates (white, 384-well, 160W-barcoded, TC, sterile with lid, Cat. No. #6007688 (Perkin Elmer); 10000 cells/well; 50 μl). The plates covered with lids are then incubated for 24 hours at 37° C./5% CO2. After the medium is aspirated from the wells completely, 10 μl of the test compound are added, the compounds are diluted using stimulating buffer (140 mM NaCl, 3.6 mM KCl, 0.5 mM NaH2PO4, 0.5 mM MgSO4, 1.5 mM CaCl2, 10 mM Hepes, 5 mM NaHCO3; pH 7.4. 0.5 mM IBMX and 0.1% BSA, the final DMSO concentration is 1%). After 45 minutes incubation at room temperature (approx. 20° C.), the cAMP concentrations are determined using the AlphaScreen cAMP Assay Kit (Cat. No. #6760625R from PerkinElmer).
`C[C@]1(C2CCN(CC3(C(F)(F)F)CC3)CC2)Cc2cc(-c3ccc(S(C)(=O)=O)cc3)ncc2O1` [Example 18] registered an EC50 of 27 nM. In other words, the double-digit nanomolar range.

`CS(=O)(=O)Cc1ccc(-c2cc3c(cn2)OC(C2CCN(CC4(C(F)(F)F)CC4)CC2)C3)cc1` (centres unmarked) [Example 8, 5-(4-Methanesulfonylmethyl-phenyl)-2-{1-[(1-trifluoromethyl-cyclopropyl)methyl]-piperidin-4-yl}-2,3-dihydrofuro[2,3-c]pyridine] displayed a 50% effective concentration (EC50) of 35 nM. The EC50 values of the last two compounds are within 1.5-fold of each other.

In turn, `CC(C)(F)CN1CCC(C2Cc3cc(C4CCN(S(C)(=O)=O)CC4)ncc3O2)CC1` (centres unmarked) [Example 5, 2-[1-(2-Fluoro-2-methyl-propyl)-piperidin-4-yl]-5-(1-methanesulfonyl-piperidin-4-yl)-2,3-dihydro-furo[2,3-c]pyridine] yielded an EC50 of 663 nM.

Regarding `CS(=O)(=O)Cc1ccc(-c2cc3c(cn2)OC(C2CCN(CC4(C(F)(F)F)CC4)CC2)C3)c(F)c1` (centres unmarked) [Example 7, 5-(2-Fluoro-4-methanesulfonylmethyl-phenyl)-2-{1-[(1-trifluoromethyl-cyclopropyl)methyl]-piperidin-4-yl}-2,3-dihydrofuro[2,3-c]pyridine], the EC50 stood at 22 nM.

In turn, `CS(=O)(=O)N1CC=C(c2cc3c(cn2)O[C@@H](C2CCN(CC4(C(F)(F)F)CC4)CC2)C3)CC1` [Example 14, (R)-5-(1-Methanesulfonyl-1,2,3,6-tetrahydro-pyridin-4-yl)-2-{1-[(1-trifluoromethyl-cyclopropyl)methyl]-piperidin-4-yl}-2,3-dihydro-furo[2,3-c]pyridine] gave an EC50 of 2 nM.

For the compound `CS(=O)(=O)N1CC=C(c2cc3c(cn2)O[C@H](C2CCN(CC4(C(F)(F)F)CC4)CC2)C3)CC1` [Example 15, (S)-5-(1-Methanesulfonyl-1,2,3,6-tetrahydro-pyridin-4-yl)-2-{1-[(1-trifluoromethyl-cyclopropyl)methyl]-piperidin-4-yl}-2,3-dihydro-furo[2,3-c]pyridine], the response was half-maximal at 78 nM (EC50).

As for `CC(C)(F)CN1CCC(C2Cc3cc(C4=CCN(S(C)(=O)=O)CC4)ncc3O2)CC1` (centres unmarked) [Example 3, 2-[1-(2-Fluoro-2-methyl-propyl)-piperidin-4-yl]-5-(1-methanesulfonyl-1,2,3,6-tetrahydro-pyridin-4-yl)-2,3-dihydro-furo[2,3-c]pyridine], the EC50 stood at 36 nM.

The compound `CC(C)(F)CN1CCC([C@H]2Cc3cc(C4=CCN(S(C)(=O)=O)CC4)ncc3O2)CC1` [Example 12, (R)-2-[1-(2-Fluoro-2-methyl-propyl)-piperidin-4-yl]-5-(1-methanesulfonyl-1,2,3,6-tetrahydro-pyridin-4-yl)-2,3-dihydro-furo[2,3-c]pyridine] returned a 50% effective concentration (EC50) of 46 nM. This EC50 and that of the compound before are within 1.5-fold of each other.

`CC(C)(F)CN1CCC([C@@H]2Cc3cc(C4=CCN(S(C)(=O)=O)CC4)ncc3O2)CC1` [Example 11, (S)-2-[1-(2-Fluoro-2-methyl-propyl)-piperidin-4-yl]-5-(1-methanesulfonyl-1,2,3,6-tetrahydro-pyridin-4-yl)-2,3-dihydro-furo[2,3-c]pyridine] showed an EC50 of 848 nM.

Turning to `CC(C)(F)CN1CCC(C2Cc3cc(-c4ccc(CS(C)(=O)=O)cc4F)ncc3O2)CC1` (centres unmarked) [Example 9, 5-(2-Fluoro-4-methanesulfonylmethyl-phenyl)-2-[1-(2-fluoro-2-methyl-propyl)-piperidin-4-yl]-2,3-dihydro-furo[2,3-c]pyridine], the EC50 was found to be 100 nM.

`CC(C)(F)CN1CCC([C@@]2(C)Cc3cc(-c4ccc(S(C)(=O)=O)cc4)ncc3O2)CC1` [Example 10, (R)-2-[1-(2-Fluoro-2-methyl-propyl)-piperidin-4-yl]-5-(4-methanesulfonyl-phenyl)-2-methyl-2,3-dihydro-furo[2,3-c]pyridine] gave an EC50 of 66 nM.

In turn, `CC(C)(F)CN1CCC(C2Cc3cc(-c4ccc(CS(C)(=O)=O)cc4)ncc3O2)CC1` (centres unmarked) [Example 4, 2-[1-(2-Fluoro-2-methyl-propyl)-piperidin-4-yl]-5-(4-methanesulfonylmethyl-phenyl)-2,3-dihydro-furo[2,3-c]pyridine] gave a 50% effective concentration (EC50) of 215 nM.

With `C[C@]1(C2CCN(CC3(C(F)(F)F)CC3)CC2)Cc2cc(C3=CCN(S(C)(=O)=O)CC3)ncc2O1` [Example 13, (R)-5-(1-Methanesulfonyl-1,2,3,6-tetrahydro-pyridin-4-yl)-2-methyl-2-{1-[(1-trifluoromethyl-cyclopropyl)methyl]-piperidin-4-yl}-2,3-dihydro-furo[2,3-c]pyridine], a half-maximal effect (EC50) was put at 5 nM.

As to `CC(C)(F)CN1CCC([C@@]2(C)Cc3cc(C4=CCN(S(C)(=O)=O)CC4)ncc3O2)CC1` [Example 16, (R)-2-[1-(2-Fluoro-2-methyl-propyl)-piperidin-4-yl]-5-(1-methanesulfonyl-1,2,3,6-tetrahydro-pyridin-4-yl)-2-methyl-2,3-dihydro-furo[2,3-c]pyridine], a half-maximal response (EC50) required 25 nM.

The compound `CS(=O)(=O)N1CC=C(c2cc3c(cn2)OC(C2CCN(CC4(C(F)(F)F)CC4)CC2)C3)CC1` (racemic) [Example 6, 5-(1-Methanesulfonyl-1,2,3,6-tetrahydro-pyridin-4-yl)-2-{1-[(1-trifluoromethyl-cyclopropyl)methyl]-piperidin-4-yl}-2,3-dihydro-furo[2,3-c]pyridine] showed an EC50 of 21 nM. This EC50 and that of the compound before are within 1.5-fold of each other.

Regarding `CC(C)(F)CN1CCC(C2Cc3cc(-c4ccc(S(C)(=O)=O)cc4)ccc3O2)CC1` (centres unmarked) [Example 1, 1-(2-Fluoro-2-methyl-propyl)-4-[5-(4-methanesulfonyl-phenyl)-2,3-dihydro-benzofuran-2-yl]-piperidine], the EC50 is 417 nM.

As to `CC(C)(F)CN1CCC([C@H]2Cc3cc(-c4ccc(S(C)(=O)=O)cc4)ncc3O2)CC1` [Example 19, (R)-2-[1-(2-Fluoro-2-methyl-propyl)-piperidin-4-yl]-5-(4-methanesulfonyl-phenyl)-2,3-dihydro-furo[2,3-c]pyridine], the EC50 was found to be 84 nM.
